Experimental data from ChEMBL document CHEMBL1201862, “PubChem BioAssay data set” (2004).
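Cells were grown in 96-well plates and exposed to each compound for 48 hours at five concentrations; endpoints were interpolated linearly between bracketing concentrations, or set to the highest concentration if not reached. Here, GI50 denotes the concentration required for 50% inhibition of growth.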 Active and inactive are the calls of the source. No stated cut-off is given here; in the data, active = GI50 up to about 1.1 µM and inactive = higher.

Columns and labels:
Assay in all cases: NCI tumour cell line growth inhibition, 48 h
[1] = test system: OVCAR-3
[2] = test system: SNB-75
[3] = test system: RPMI-8226
[4] = test system: NCI-H522
[5] = test system: CCRF-CEM
[6] = test system: A549
[7] = test system: K562
[8] = test system: UACC-257
[9] = test system: SN12C
[10] = test system: A498
[11] = test system: SF-268
[12] = test system: HOP-62
[13] = test system: HCT-15
[14] = test system: SF-539
[15] = test system: HT-29
[16] = test system: EKVX
[17] = test system: SK-MEL-5
[18] = test system: COLO 205
[19] = test system: SNB-19
[20] = test system: HL-60

N/C(=N\O)N/N=C/c1ncccc1O
GI50 [1]: 14.8 µM (inactive)
GI50 [2]: 17.9 µM (inactive)
GI50 [3]: 1.83 µM (inactive)
GI50 [4]: 15.1 µM (inactive)
GI50 [5]: 6.43 µM (inactive)
GI50 [6]: 10.1 µM (inactive)
GI50 [7]: 4.82 µM (inactive)
GI50 [8]: 26.1 µM (inactive)
GI50 [9]: 16.7 µM (inactive)
GI50 [10]: 35.7 µM (inactive)
GI50 [11]: 22.7 µM (inactive)
GI50 [12]: 19.8 µM (inactive)
GI50 [13]: 4.66 µM
GI50 [14]: 19.7 µM (inactive)
GI50 [15]: 13.4 µM (inactive)
GI50 [16]: 22.1 µM (inactive)
GI50 [17]: 11.4 µM (inactive)
GI50 [18]: 11.9 µM (inactive)
GI50 [19]: 33.8 µM (inactive)
GI50 [20]: 2.41 µM (inactive)

CC12CCC(=O)N1c1cnccc1N2 (configuration not stated)
GI50 [1]: > 100 µM (inactive)
GI50 [2]: > 100 µM (inactive)
GI50 [3]: > 100 µM (inactive)
GI50 [4]: > 100 µM (inactive)
GI50 [5]: > 100 µM (inactive)
GI50 [6]: > 100 µM (inactive)
GI50 [7]: > 100 µM (inactive)
GI50 [8]: > 100 µM (inactive)
GI50 [9]: > 100 µM (inactive)
GI50 [10]: > 100 µM (inactive)
GI50 [11]: > 100 µM (inactive)
GI50 [12]: > 100 µM (inactive)
GI50 [13]: > 100 µM
GI50 [14]: > 100 µM (inactive)
GI50 [15]: > 100 µM (inactive)
GI50 [16]: > 100 µM (inactive)
GI50 [17]: > 100 µM (inactive)
GI50 [18]: > 100 µM (inactive)
GI50 [19]: > 100 µM (inactive)
GI50 [20]: > 100 µM (inactive)

CCOc1ncn(-c2ccc(NC(=S)Nc3cccc(O)c3)cc2)n1
GI50 [1]: > 100 µM (inactive)
GI50 [2]: 40.4 µM (inactive)
GI50 [3]: > 100 µM (inactive)
GI50 [4]: > 100 µM (inactive)
GI50 [5]: > 100 µM (inactive)
GI50 [6]: > 100 µM (inactive)
GI50 [7]: > 100 µM (inactive)
GI50 [8]: > 100 µM (inactive)
GI50 [9]: > 100 µM (inactive)
GI50 [11]: > 100 µM (inactive)
GI50 [12]: > 100 µM (inactive)
GI50 [13]: > 100 µM
GI50 [14]: > 100 µM (inactive)
GI50 [15]: > 100 µM (inactive)
GI50 [16]: > 100 µM (inactive)
GI50 [17]: > 100 µM (inactive)
GI50 [18]: > 100 µM (inactive)
GI50 [19]: > 100 µM (inactive)
GI50 [20]: > 100 µM (inactive)

CC1(C)OC[C@H](C(=N)OCc2ccccc2)O1
GI50 [1]: > 100 µM (inactive)
GI50 [2]: > 100 µM (inactive)
GI50 [3]: > 100 µM (inactive)
GI50 [4]: > 100 µM (inactive)
GI50 [5]: > 100 µM (inactive)
GI50 [6]: > 100 µM (inactive)
GI50 [7]: > 100 µM (inactive)
GI50 [8]: > 100 µM (inactive)
GI50 [9]: > 100 µM (inactive)
GI50 [10]: > 100 µM (inactive)
GI50 [11]: > 100 µM (inactive)
GI50 [12]: > 100 µM (inactive)
GI50 [13]: > 100 µM
GI50 [14]: > 100 µM (inactive)
GI50 [15]: > 100 µM (inactive)
GI50 [16]: > 100 µM (inactive)
GI50 [17]: > 100 µM (inactive)
GI50 [18]: > 100 µM (inactive)
GI50 [19]: > 100 µM (inactive)
GI50 [20]: > 100 µM (inactive)

COc1cc(OC)cc(Oc2nc3cc(F)c(F)cc3nc2-c2ccccc2)c1
GI50 [1]: > 100 µM (inactive)
GI50 [2]: > 100 µM (inactive)
GI50 [4]: > 100 µM (inactive)
GI50 [5]: > 100 µM (inactive)
GI50 [6]: > 100 µM (inactive)
GI50 [8]: > 100 µM (inactive)
GI50 [9]: > 100 µM (inactive)
GI50 [10]: > 100 µM (inactive)
GI50 [11]: > 100 µM (inactive)
GI50 [12]: > 100 µM (inactive)
GI50 [13]: > 100 µM
GI50 [14]: > 100 µM (inactive)
GI50 [15]: > 100 µM (inactive)
GI50 [16]: > 100 µM (inactive)
GI50 [17]: > 100 µM (inactive)
GI50 [18]: > 100 µM (inactive)
GI50 [19]: > 100 µM (inactive)
GI50 [20]: > 100 µM (inactive)

CCCCC(CC)C(=O)Oc1ccc(C(=O)c2ccccc2)c(O)c1 (configuration not stated)
GI50 [1]: 40.5 µM (inactive)
GI50 [2]: 23.3 µM (inactive)
GI50 [3]: 15.1 µM (inactive)
GI50 [4]: 31.7 µM (inactive)
GI50 [5]: 43.6 µM (inactive)
GI50 [6]: 46.8 µM (inactive)
GI50 [7]: 25.9 µM (inactive)
GI50 [8]: 38.5 µM (inactive)
GI50 [9]: 44.4 µM (inactive)
GI50 [10]: 45.9 µM (inactive)
GI50 [11]: 34.5 µM (inactive)
GI50 [12]: 55 µM (inactive)
GI50 [13]: 40.1 µM
GI50 [14]: 5.46 µM (inactive)
GI50 [15]: 55.7 µM (inactive)
GI50 [16]: 35.6 µM (inactive)
GI50 [17]: 39.6 µM (inactive)
GI50 [18]: 61.2 µM (inactive)
GI50 [19]: 68.9 µM (inactive)
GI50 [20]: 55.1 µM (inactive)

N#Cc1c(Cl)cc(Cl)n2c1nc1ccccc12
GI50 [1]: 6 µM (inactive)
GI50 [2]: 14 µM (inactive)
GI50 [3]: 4.27 µM (inactive)
GI50 [4]: 2.29 µM (inactive)
GI50 [5]: 2.49 µM (inactive)
GI50 [6]: 17.3 µM (inactive)
GI50 [7]: 2.61 µM (inactive)
GI50 [8]: 10.3 µM (inactive)
GI50 [9]: 15.3 µM (inactive)
GI50 [10]: 22 µM (inactive)
GI50 [11]: 14.1 µM (inactive)
GI50 [12]: 22.9 µM (inactive)
GI50 [13]: 3.43 µM
GI50 [14]: 4.47 µM (inactive)
GI50 [15]: 7.55 µM (inactive)
GI50 [16]: 23.1 µM (inactive)
GI50 [17]: 14.3 µM (inactive)
GI50 [18]: 3.52 µM (inactive)
GI50 [19]: 22 µM (inactive)
GI50 [20]: 1.31 µM (inactive)
